The values that follow come from PubChem BioAssay (NCI).

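How tested: cells in 96-well plates exposed to compound for 48 hours at five concentrations. Abbreviation: GI50, concentration required for 50% inhibition of growth. TGI marks complete inhibition of growth.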

What all share (assay): NCI tumour cell line growth inhibition, 48 h
Assay [1] concerns HL-60(TB) leukemia.
Assay [2] concerns LOX IMVI melanoma.
Assay [3] relates to MOLT-4 leukemia.
In assay [4] the test system is OVCAR-5 ovarian.
The subject of assay [5] is OVCAR-8 ovarian.
In assay [6] the test system is SF-268 CNS.
Assay [7] relates to SF-295 CNS.
For assay [8], the system named is SR leukemia.
Assay [9] has as its system SW-620 colon.
For assay [10], the system named is UACC-62 melanoma.

Take `COc1cc(-c2nn(-c3cccc(NC(=O)NCCNS(=O)(=O)c4ccc(Cl)cc4)c3)cc2-c2ccncc2)ccc1Cl`: the GI50 in assay [1] is 0.466 µM; in [2] it was 0.559 µM; in assay [3], 1.03 µM; in assay [4], 2.82 µM; in [5], 1.71 µM; in assay [6], 0.792 µM. Besides, the GI50 is 0.513 µM in assay [7], 0.466 µM in [8], 0.524 µM in assay [9] and 0.499 µM in assay [10]. The TGI in assay [1] is above 100 µM; in assay [2], 2.46 µM; in assay [3], above 100 µM; in assay [4], above 100 µM; in [5], 8.48 µM; in assay [6], 4.39 µM. The TGI in assay [7] was determined as 2.09 µM; in assay [8], 3.53 µM; in assay [9] it was 30.3 µM; in assay [10] it was 2.39 µM.

Consider `O=c1cc(-c2ccccc2)oc2ccc(OC/C(=N/O)c3ccc(F)cc3)cc12`, for which the GI50 was 1.97 µM in [1]; 5.46 µM in assay [2]; 3.54 µM in assay [3]; 16.4 µM in assay [4]; 8.44 µM in assay [5]; 3.62 µM in [6]. Besides, the GI50 in assay [7] is 1.79 µM; in [8], 2.09 µM; in assay [9], 2.67 µM; in [10], 5.5 µM. The TGI in assay [1] is 13.9 µM; in [2], 12.3 µM; in [3], above 50 µM; in assay [4], above 50 µM; in [5] it was above 50 µM; in assay [6] it was 14.3 µM. The TGI was 8.12 µM in [7], above 50 µM in assay [8], 32.8 µM in [9] and 22.8 µM in assay [10].

`O=C(O)C1CCN(Cc2oc(CO)cc(=O)c2O)C1` (stereo not given): the TGI in assay [1], in assay [2], in assay [3], in assay [4], in assay [5] and in assay [6] was above 100 µM each time. In addition, the TGI in assay [7], in assay [8], in [9] and in assay [10] was above 100 µM in each case.

With `O=C(O)/C=C/c1ccc[c]([Sb](=[O])([OH])[OH])c1`, the GI50 in assay [1], in [2], in assay [3], in assay [4], in assay [5] and in [6] was above 100 µM in each case. Also, the GI50 in assay [7], in assay [8], in assay [9] and in [10] was above 100 µM each time. In addition, the TGI in assay [1], in assay [2], in [3], in assay [4], in assay [5] and in [6] was above 100 µM in each case. The TGI in assay [7], in [8], in [9] and in assay [10] was above 100 µM throughout.

`COC1(OC)C2(Cl)C(Cl)=C(Cl)C1(Cl)C1c3ccc(C(C)=O)c4cccc(c34)C12` (stereo not given): the TGI is 47.3 µM in assay [1]; above 100 µM in [2]; above 77.6 µM in assay [3]; above 100 µM in assay [4]; above 100 µM in assay [5]; above 100 µM in assay [6]. For the same molecule, the TGI in [7] was above 100 µM; in [8], 50.2 µM; in assay [9], above 100 µM; in [10], above 100 µM.

On to `Cc1ccc2[nH]c3c(c2c1)N=c1ccccc1=NO3`, for which the GI50 is above 100 µM in assay [1]; 97.8 µM in [2]; above 100 µM in [3]; above 100 µM in assay [4]; 17.5 µM in assay [5]; 23.1 µM in assay [6]. The GI50 in assay [7] is 23.8 µM; in [8] it was 33.4 µM; in assay [9] it was above 100 µM; in assay [10] it was 36.5 µM. In addition, the TGI in assay [1] is above 100 µM; in [2], above 100 µM; in [3], above 100 µM; in assay [4], above 100 µM; in [5], 43 µM; in [6] it was 55.8 µM. Also, the TGI in assay [7] is 84.9 µM; in assay [8], above 100 µM; in [9] it was above 100 µM; in assay [10], above 100 µM.

Regarding `O=C1C=CC(=O)C2C1Cc1ccccc1C2c1ccccc1` (stereo not given), the TGI in [1] was 53.1 µM; in assay [2], above 100 µM; in assay [3], 93.2 µM; in assay [4], above 100 µM; in assay [5], 78 µM; in assay [6] it was above 100 µM. Moreover, the TGI in assay [7] is above 100 µM; in [8] it was 59.1 µM; in [9], 71 µM; in assay [10] it was above 100 µM.

For the molecule `CN(C)C[C@H]1CCn2c(c(C3=C(c4cn(C)c5ccccc45)C(=O)NC3=O)c3ccccc32)C1`, the GI50 in assay [1] was 5.65 µM; in assay [2] it was 4.58 µM; in assay [3], 6.38 µM; in assay [4], 5.35 µM; in assay [5] it was 5.6 µM; in assay [6], 4.71 µM. In addition, the GI50 in assay [7] was 5.21 µM; in [8], 4.26 µM; in assay [9], 4.42 µM; in assay [10], 4.15 µM. For the same molecule, the TGI is 11.3 µM in [1]; 8.56 µM in [2]; 14 µM in assay [3]; 17 µM in assay [4]; 13.2 µM in assay [5]; 9.04 µM in assay [6]. For the same molecule, the TGI was found to be 11.3 µM in [7], 11.1 µM in [8], 8.89 µM in [9] and 7.98 µM in [10].

`Nc1ncn(C2OC(COP(=O)(O)O)C(O)C2O)c(=O)n1` (stereo not given): the TGI was above 100 µM in assay [1]; above 100 µM in assay [2]; above 59.2 µM in assay [3]; above 100 µM in assay [4]; above 68.9 µM in assay [5]; above 100 µM in [6]. The TGI in assay [7], in assay [8], in [9] and in assay [10] was above 100 µM in each case.

For the molecule `CC(CN1CC(=O)NC(=O)C1)N1CC(=O)NC(=O)C1` (stereo not given), the TGI in assay [1] is 690 µM; in assay [2] it was above 750 µM; in [3], above 750 µM; in assay [4], 749 µM; in assay [5], above 750 µM; in assay [6] it was above 750 µM. The TGI in [7] was above 750 µM; in assay [8], above 750 µM; in [9], above 750 µM; in assay [10], above 686 µM.
